In ChEMBL document CHEMBL5726342, “NMDA receptor modulators and uses related thereto” (2017):

Assay: Inhibition Assay: Two-electrode voltage-clamp recordings were made from Xenopus laevis oocytes expressing recombinant rat GluN1/GluN2A, GluN1/GluN2B, GluN1/GluN2C, GluN1/GluN2D, GluA1, or GluK2 receptors following injection of 5-10 ng of cRNA synthesized according to manufacturers' protocols (Ambin, mMessage, mMachine). cDNAs used were rat GluN1-1a (GenBank accession numbers U11418 and U08261; hereafter GluN1), GluN2A (D13211), GluN2B (U11419), GluN2C (M91563), GluN2D (L31611), GluA1 (X17184), GluK2 (Z11548). The current under voltage-clamp was recorded during perfusion with recording solution containing (in mM) 90 NaCl, 1.0 KCl, 0.5 BaCl2, 0.005 EDTA, and 10 HEPES at pH 7.4 (23° C.). Glass micropipettes had resistances of 0.3-1.0 MS2 and were filled with 3.0 M KCl. The membrane potential was clamped at −40 mV during the experiment. Recordings were digitized at 10 Hz and analyzed off line. 20 mM stock solutions of test compounds in 100% DMSO were made and diluted to obtain the final concentration; final DMSO content was 0.05-0.5% (vol/vol). Oocytes expressing GluK2 homomeric receptors were first treated with 10 μM concanavalin A (10 minutes). NMDA receptor responses were obtained by challenging oocytes with 100 μM glutamate plus 30 μM glycine; GluA1 and GluK2 receptors responses were recorded during application of 100 μM glutamate. […]
Type: cell-based

Row | IC50 [µM] | Structure (SMILES)
1 | 9 | CCc1ccc(C2C(C(=O)c3ccncc3)=C(O)C(=O)N2CCc2c[nH]c3cc(C)ccc23)cc1 (configuration not stated)
2 | 7 | CCc1ccc(C2C(C(=O)c3cccnc3)=C(O)C(=O)N2CCc2c[nH]c3cc(C)ccc23)cc1 (configuration not stated)
